Activity calls are given as the source filed them.
Assays:
[1] = Luminescence Cell-Based Dose Confirmation HTS to Identify Activators of 5'UTR Stem-Loop Driven Alpha-Synuclein mRNA Translation in H4 Neuroglioblastoma Cells. [Related pubchem assays: 1829 (Project Summary), 1814 (Primary HTS)]; type: functional
[2] = Luminescence Cell-Based Dose Response HTS to Identify Activators of Luciferase Translation or Activity in H4 […] Cells. [Related pubchem assays: 1829 (Project Summary), 1814 (Primary HTS)]; type: functional
H4 = assay: Luminescence Cell-Based Dose Response HTS to Identify Activators of 5'UTR Stem-Loop Driven Prion Protein mRNA Translation in H4 Neuroglioblastoma Cells. [Related pubchem assays: 1829 (Project Summary), 1814 (Primary HTS)]; type: functional; details: Homo sapiens
[3] = target: Voltage-gated inwardly rectifying potassium channel KCNH2 (Homo sapiens, UniProt Q12809); assay: hERG protection from proarrhythmic block, potency, dose response, cell-based, thallium flux (AID 2121); type: ADME
Voltage-gated inwardly rectifying potassium channel KCNH2, sequence (Q12809 whole entry): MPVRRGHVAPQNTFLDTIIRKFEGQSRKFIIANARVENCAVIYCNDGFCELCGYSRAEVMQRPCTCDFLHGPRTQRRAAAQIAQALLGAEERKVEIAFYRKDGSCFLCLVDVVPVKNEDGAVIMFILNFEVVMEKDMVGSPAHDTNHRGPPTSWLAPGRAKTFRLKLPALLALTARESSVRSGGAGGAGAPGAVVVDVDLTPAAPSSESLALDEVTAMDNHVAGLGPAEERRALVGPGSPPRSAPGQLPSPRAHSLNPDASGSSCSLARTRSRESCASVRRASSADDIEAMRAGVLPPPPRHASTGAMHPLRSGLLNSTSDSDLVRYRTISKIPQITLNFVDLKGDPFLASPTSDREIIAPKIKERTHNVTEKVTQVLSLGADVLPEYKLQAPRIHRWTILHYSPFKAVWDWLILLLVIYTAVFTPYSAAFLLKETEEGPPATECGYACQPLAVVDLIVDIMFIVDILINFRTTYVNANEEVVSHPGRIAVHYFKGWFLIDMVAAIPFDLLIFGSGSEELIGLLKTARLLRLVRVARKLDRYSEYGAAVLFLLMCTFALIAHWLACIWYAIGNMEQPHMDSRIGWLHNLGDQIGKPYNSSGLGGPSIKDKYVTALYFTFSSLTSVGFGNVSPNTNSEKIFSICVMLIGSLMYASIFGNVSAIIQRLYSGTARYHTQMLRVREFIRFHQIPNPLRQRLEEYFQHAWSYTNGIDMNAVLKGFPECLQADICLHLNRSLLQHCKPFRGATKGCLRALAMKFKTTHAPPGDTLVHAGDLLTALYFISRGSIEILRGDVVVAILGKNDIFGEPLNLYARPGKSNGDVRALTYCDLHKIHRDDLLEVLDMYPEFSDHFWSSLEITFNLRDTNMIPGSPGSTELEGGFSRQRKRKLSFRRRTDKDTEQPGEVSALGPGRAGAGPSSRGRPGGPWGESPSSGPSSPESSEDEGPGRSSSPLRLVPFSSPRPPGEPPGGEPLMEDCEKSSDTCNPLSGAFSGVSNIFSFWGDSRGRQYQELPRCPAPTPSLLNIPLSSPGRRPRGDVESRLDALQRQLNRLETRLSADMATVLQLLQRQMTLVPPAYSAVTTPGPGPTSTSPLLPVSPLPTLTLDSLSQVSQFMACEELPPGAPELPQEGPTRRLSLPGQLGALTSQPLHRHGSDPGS

[4] = target: Glyceraldehyde-3-phosphate dehydrogenase (Homo sapiens, UniProt P04406)
Glyceraldehyde-3-phosphate dehydrogenase, sequence (P04406 whole entry): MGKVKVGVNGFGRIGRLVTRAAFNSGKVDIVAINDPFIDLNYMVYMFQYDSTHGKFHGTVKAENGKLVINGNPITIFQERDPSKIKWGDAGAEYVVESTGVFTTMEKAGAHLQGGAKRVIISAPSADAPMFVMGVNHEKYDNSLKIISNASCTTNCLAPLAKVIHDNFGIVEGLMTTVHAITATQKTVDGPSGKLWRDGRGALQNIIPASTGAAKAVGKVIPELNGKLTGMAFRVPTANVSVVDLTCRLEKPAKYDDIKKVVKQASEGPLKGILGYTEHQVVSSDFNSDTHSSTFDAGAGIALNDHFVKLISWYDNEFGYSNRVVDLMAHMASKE

Bcl-2-related protein A1 [5] = target: T1, Bcl-2-related protein A1 (Mus musculus, UniProt Q07440); assay: Bfl-1 inhibitors blocking BH3 peptide binding, confirmation, biochemical, TR-FRET, mouse Bfl-1 (AID 621);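 note: TR-FRET binding of GST-Bfl-1 to FITC-labelled Bid peptide via terbium antibody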
T1 sequence (Q07440 whole entry): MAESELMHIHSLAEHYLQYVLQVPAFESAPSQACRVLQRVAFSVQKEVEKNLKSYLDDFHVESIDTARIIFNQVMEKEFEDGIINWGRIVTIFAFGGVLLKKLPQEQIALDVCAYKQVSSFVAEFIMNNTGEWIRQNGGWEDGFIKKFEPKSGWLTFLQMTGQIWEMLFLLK

Bcl-2-related protein A1 [6] = target: T1, Bcl-2-related protein A1; assay: Bfl-1 binding inhibitors, SAR follow-up, biochemical, fluorescence polarization (AID 1070)
[7] = inhibitors of intracellular T. cruzi replication, confirmation, NIH3T3 host cells, beta-gal luminescence (AID 2044); type: functional, cell-based;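 note: intracellular parasites grown in NIH/3T3 mouse fibroblasts as host cells; luminescent beta-galactosidase reporter signal from transgenic T. cruzi replicating inside host cells; inhibitors lower the luminescence signal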
[8] = cytotoxicity toward NIH3T3 fibroblasts, dose response, counter-screen, cell-based, ATP luminescence, mouse fibroblasts (AID 2010); type: functional;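 note: cells exposed to compound for about 90 hours before reading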
[9] = target: E3 ubiquitin-protein ligase Mdm2 (Homo sapiens, UniProt Q00987); assay: enhancers of MDM2-luciferase reporter signal, concentration-effect titration, project on inhibitors of MDM2 ubiquitin ligase, cellular assay, luminescent readout, 384-well plate format (AID 1394); type: functional;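 note: MDM2 E3 inhibitors raise luminescence so EC50 is for signal enhancement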
E3 ubiquitin-protein ligase Mdm2, sequence (Q00987 whole entry): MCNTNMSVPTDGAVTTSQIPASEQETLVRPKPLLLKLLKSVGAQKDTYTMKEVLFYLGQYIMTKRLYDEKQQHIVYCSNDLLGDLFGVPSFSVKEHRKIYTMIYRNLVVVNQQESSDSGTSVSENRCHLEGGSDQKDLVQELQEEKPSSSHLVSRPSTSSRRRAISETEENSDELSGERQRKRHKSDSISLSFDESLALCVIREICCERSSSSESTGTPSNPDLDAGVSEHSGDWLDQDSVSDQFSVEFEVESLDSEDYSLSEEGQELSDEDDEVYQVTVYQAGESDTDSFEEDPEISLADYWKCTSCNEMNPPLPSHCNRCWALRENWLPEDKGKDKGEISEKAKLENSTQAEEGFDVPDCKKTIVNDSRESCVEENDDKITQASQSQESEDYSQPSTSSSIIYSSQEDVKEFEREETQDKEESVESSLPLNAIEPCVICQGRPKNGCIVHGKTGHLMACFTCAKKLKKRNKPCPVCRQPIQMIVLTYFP

[10] = target: Heat shock protein HSP 90-alpha (Homo sapiens, UniProt P07900); type: functional, organism-based
Aminopeptidase N = target: T2, Aminopeptidase N (Plasmodium falciparum FcB1/Columbia, UniProt O96935); assay: P. falciparum M1AAP inhibitors, biochemical, fluorogenic H-Leu-NHMec substrate, 1536-well (AID 1445); parameters: species or system Plasmodium falciparum 3D7, 3D7
T2 sequence (O96935 whole entry): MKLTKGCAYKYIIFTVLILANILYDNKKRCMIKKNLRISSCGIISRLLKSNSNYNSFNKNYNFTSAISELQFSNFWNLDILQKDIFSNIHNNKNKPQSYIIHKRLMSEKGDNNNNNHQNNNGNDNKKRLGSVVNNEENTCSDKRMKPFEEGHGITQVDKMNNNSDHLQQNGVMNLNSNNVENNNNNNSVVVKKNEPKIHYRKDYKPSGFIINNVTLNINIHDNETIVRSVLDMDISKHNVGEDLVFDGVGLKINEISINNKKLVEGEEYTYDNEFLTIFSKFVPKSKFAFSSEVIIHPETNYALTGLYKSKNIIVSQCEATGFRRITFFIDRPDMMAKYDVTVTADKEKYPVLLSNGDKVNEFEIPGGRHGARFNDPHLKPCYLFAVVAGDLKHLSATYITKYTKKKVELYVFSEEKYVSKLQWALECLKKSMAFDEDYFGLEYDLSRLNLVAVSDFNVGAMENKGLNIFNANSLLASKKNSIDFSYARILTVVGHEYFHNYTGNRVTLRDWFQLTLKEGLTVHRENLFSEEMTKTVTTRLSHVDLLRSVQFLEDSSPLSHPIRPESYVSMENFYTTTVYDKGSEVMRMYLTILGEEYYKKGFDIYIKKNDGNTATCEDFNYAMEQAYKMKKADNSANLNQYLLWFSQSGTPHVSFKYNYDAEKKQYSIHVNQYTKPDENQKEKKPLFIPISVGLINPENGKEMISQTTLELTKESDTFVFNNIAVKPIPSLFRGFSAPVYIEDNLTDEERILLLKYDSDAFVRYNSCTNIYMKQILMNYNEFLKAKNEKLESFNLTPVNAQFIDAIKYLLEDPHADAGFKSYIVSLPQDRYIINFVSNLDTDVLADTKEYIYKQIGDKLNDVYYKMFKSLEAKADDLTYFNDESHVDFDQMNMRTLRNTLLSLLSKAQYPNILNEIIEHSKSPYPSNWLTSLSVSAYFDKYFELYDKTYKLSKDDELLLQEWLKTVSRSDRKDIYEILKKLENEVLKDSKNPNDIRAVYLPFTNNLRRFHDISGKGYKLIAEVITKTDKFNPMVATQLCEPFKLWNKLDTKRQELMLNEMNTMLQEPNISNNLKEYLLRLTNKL

[11] = tested on: Streptococcus sp. 'group A'; assay: growth inhibition of control SK(-) GAS strain, dose response, counter-screen for streptokinase expression inhibitor project, luminescence, kanamycin, BacTiterGlo, confirmation (AID 1900); type: functional, organism-based
Streptokinase A = target: T3, Streptokinase A (Streptococcus pyogenes serotype M1, UniProt P10520); assay: S. pyogenes streptokinase expression inhibitors, potency, dose response, plasminogen activation absorbance, OD405 (AID 1914); type: functional, Streptococcus pyogenes M1 GAS;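 note: secreted streptokinase activity via plasminogen activation per viability signal from cell pellet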
T3 sequence (P10520 whole entry): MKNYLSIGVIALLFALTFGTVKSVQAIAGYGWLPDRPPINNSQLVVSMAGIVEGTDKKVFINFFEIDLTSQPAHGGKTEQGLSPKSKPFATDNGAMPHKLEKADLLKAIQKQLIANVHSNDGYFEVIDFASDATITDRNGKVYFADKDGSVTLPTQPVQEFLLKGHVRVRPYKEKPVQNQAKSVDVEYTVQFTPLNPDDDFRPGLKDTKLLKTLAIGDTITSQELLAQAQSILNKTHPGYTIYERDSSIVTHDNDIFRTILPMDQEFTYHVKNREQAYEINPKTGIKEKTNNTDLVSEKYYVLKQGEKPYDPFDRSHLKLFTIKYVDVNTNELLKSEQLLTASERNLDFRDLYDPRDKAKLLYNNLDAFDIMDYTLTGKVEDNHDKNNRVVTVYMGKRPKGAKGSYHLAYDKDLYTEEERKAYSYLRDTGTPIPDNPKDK

[12] = target: Bifunctional protein GlmU (Mycobacterium tuberculosis, UniProt P9WMN3); assay: Inhibitors of Mycobacterial Glucosamine-1-phosphate acetyl transferase (GlmU). Secondary screen.; parameters: species or system Mycobacterium tuberculosis H37Rv
Bifunctional protein GlmU, sequence (P9WMN3 whole entry): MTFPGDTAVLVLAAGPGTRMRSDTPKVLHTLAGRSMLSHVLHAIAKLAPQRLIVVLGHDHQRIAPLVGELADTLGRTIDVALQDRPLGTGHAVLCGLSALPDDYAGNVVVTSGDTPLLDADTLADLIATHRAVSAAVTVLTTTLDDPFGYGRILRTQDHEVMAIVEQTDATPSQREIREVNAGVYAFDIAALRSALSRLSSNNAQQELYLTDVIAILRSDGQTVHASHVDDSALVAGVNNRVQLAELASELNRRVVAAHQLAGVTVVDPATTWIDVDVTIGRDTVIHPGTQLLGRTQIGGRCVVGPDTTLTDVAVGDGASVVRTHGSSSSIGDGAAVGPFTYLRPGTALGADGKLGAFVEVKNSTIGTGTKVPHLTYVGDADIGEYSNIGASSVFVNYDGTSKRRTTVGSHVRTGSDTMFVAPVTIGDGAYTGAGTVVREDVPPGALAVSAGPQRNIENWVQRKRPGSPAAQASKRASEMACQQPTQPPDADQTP

[13] = target: Induced myeloid leukemia cell differentiation protein Mcl-1 (Homo sapiens, UniProt Q07820); type: functional
Induced myeloid leukemia cell differentiation protein Mcl-1, sequence (Q07820 whole entry): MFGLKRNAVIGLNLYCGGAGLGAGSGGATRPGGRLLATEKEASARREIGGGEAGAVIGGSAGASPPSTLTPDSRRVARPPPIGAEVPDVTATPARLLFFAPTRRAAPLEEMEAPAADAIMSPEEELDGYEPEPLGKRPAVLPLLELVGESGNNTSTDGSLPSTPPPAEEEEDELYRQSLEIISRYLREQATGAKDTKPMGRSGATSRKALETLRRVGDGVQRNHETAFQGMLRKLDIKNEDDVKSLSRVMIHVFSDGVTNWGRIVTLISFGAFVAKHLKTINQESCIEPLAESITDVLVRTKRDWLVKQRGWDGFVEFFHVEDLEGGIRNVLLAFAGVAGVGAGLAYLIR

Streptococcus = assay: Group A Streptococcus viability loss, dose response, counter-screen for streptokinase expression inhibitor project, luminescence, BacTiterGlo (AID 1915); type: functional, organism-based;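 note: potency for reduction of bacterial viability or growth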
[14] = target: T4, Probable nicotinate-nucleotide adenylyltransferase (Staphylococcus aureus (strain N315), UniProt P65502); type: functional, Staphylococcus aureus subsp. aureus N315;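 for IC50 Mean: confirmatory dose-response retesting of NadD inhibitor hits first found in an ultra-high-throughput screen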
T4 sequence (P65502 whole entry): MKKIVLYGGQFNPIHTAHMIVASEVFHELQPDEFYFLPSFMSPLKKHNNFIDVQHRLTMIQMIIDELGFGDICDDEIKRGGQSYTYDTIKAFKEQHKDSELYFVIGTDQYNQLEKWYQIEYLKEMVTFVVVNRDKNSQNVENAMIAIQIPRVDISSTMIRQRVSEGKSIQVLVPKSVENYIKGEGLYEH

[15] = target: T4, Probable nicotinate-nucleotide adenylyltransferase; type: functional, Staphylococcus aureus subsp. aureus N315; details: read-out: IC50_Mean
[16] = Shn3 3'UTR reporter inhibitors, dose response, cell-based, Clone20 osteoblasts, firefly luciferase, cherry-picked (AID 624132); type: functional;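 note: firefly luciferase luminescence from reporter carrying the Shn3 3'UTR in osteoblasts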
[17] = HepG2 cell cytotoxicity, dose response, cytotoxicity control for Shn3 inhibitor project, CellTiter-Glo, cherry-picked (AID 624134); type: functional, cell-based
[18] = control 3'UTR Renilla luciferase suppression, dose response, counter-screen for Shn3 inhibitor project, cell-based, Clone20-Shn3RL, cherry-picked (AID 624133); type: functional
[19] = target: Sphingosine 1-phosphate receptor 2 (Homo sapiens, UniProt O95136); assay: Dose Response Cell Based Assay for Antagonists of the S1P2 Receptor. [Related pubchem assays: 856, 736 ]; type: functional
Sphingosine 1-phosphate receptor 2, sequence (O95136 whole entry): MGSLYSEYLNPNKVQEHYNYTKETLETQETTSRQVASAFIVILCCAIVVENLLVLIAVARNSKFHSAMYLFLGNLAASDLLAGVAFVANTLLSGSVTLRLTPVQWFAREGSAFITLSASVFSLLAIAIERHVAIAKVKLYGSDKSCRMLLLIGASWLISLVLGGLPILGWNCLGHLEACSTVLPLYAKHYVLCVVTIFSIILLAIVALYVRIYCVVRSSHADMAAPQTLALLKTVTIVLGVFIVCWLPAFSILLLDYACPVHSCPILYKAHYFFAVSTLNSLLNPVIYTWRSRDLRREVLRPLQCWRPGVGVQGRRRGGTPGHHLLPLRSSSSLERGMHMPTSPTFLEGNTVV

[20] = target: T5, Heat shock factor protein 1 (Mus musculus, UniProt P38532); assay: inhibition of MG132-induced HSE-luciferase signal, confirmation, cell-based, NIH3T3, luminescence, dose retest (AID 2382); type: functional;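 note: NIH3T3 fibroblasts with HSF1-driven luciferase reporter stressed by proteasome inhibitor MG132; luminescence from HSF1-driven luciferase expression after 8 hours of MG132 stress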
T5 sequence (P38532 whole entry): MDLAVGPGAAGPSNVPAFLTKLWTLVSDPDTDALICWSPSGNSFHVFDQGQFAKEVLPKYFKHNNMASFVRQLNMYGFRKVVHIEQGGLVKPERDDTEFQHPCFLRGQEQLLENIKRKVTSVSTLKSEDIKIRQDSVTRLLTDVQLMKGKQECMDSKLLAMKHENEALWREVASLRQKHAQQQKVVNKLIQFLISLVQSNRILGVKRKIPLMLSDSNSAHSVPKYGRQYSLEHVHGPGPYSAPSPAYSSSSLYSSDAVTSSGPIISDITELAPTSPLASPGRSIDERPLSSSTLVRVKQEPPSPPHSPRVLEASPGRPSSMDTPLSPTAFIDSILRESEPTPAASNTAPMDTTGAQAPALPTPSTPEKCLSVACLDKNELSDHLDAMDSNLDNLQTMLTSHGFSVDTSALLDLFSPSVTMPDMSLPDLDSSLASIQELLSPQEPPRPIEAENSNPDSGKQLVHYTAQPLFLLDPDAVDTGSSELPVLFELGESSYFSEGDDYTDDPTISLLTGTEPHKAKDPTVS

[21] = cytotoxicity in HPDE-C7 cells, cell-based, fluorescence, HTS (AID 430); type: functional; details: Homo sapiens
[22] = cytotoxicity in KRAS-transformed pancreatic duct cells, primary screen, cell-based, fluorescence, HTS (AID 431); type: functional; details: Homo sapiens;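 note: cell line used: HPDE-C7K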
CAAX prenyl protease 2 = target: T6, CAAX prenyl protease 2 (Saccharomyces cerevisiae S288c, UniProt Q03530); type: biochemical
T6 sequence (Q03530 whole entry): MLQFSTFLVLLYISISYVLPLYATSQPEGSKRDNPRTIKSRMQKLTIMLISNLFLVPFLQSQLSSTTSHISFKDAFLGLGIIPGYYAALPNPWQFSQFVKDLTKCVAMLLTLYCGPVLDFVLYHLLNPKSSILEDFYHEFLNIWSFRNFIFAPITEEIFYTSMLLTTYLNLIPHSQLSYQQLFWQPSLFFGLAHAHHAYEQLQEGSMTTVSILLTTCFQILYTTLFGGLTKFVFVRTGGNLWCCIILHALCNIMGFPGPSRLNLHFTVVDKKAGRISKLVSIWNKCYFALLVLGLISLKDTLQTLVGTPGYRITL

Ephrin type-A receptor 4 = Ephrin type-A receptor 4 (Mus musculus, UniProt Q03137); assay: inhibitors of EphA4 binding to KYL peptide, primary screen, biochemical, colorimetric, mouse EphA4 (AID 689); type: functional
Ephrin type-A receptor 4, sequence (Q03137 whole entry): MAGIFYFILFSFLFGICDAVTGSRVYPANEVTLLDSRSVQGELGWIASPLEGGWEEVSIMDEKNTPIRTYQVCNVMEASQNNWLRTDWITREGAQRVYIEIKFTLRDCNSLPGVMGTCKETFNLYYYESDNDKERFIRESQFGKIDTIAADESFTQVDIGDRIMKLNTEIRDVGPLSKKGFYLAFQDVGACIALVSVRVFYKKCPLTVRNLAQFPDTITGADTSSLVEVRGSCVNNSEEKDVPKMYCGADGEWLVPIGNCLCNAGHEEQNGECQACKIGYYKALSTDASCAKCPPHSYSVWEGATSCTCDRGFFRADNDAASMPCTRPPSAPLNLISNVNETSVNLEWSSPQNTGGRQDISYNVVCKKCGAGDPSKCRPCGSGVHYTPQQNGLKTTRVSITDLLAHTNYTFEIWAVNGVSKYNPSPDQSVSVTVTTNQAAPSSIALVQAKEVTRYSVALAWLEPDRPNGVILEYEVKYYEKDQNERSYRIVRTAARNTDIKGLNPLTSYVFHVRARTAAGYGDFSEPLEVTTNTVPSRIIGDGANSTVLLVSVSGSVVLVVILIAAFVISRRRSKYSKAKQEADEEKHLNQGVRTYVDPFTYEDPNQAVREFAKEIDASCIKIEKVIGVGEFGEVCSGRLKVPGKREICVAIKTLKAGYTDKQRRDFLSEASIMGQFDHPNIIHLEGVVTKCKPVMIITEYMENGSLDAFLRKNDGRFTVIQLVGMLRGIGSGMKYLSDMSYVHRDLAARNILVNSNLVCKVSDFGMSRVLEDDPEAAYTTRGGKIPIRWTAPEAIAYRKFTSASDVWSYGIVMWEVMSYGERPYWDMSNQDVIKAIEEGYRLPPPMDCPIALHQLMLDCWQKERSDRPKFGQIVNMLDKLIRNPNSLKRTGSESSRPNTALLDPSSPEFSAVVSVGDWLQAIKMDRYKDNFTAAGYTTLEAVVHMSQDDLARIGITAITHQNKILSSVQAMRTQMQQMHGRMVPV

Compound: COc1cccc([C@@H]2Oc3ccc(OC)cc3C(=O)[C@H]2OC(=O)NCc2ccc3c(c2)OCO3)c1
- EC50 [1]: 16.3 µM (active)
- EC50 [2]: 16.6 µM (active)
- EC50 (H4): 46.4 µM (active)
- EC50 [3]: 4.06 µM (active)

Compound: NCCN1CCN(C2=C(Cl)C(=O)N(c3ccc(Cl)c(Cl)c3)C2=O)CC1
- IC50 [4]: > 100 µM (not active)
- IC50 (Bcl-2-related protein A1 [5]): > 100 µM (not active)
- IC50 (Bcl-2-related protein A1 [6]): > 100 µM (not active)

Compound: COc1ccc(C(=O)OC2CCN(C)CC2)cc1
- EC50 [7]: < 0.1 µM (active)
- EC50 [8]: > 60 µM (not active)
- EC50 (cells): 0.077 µM (active)

Compound: O=C1C(Cl)=C(N2CCN(c3ccccc3F)CC2)C(=O)N1c1ccc(Cl)c(Cl)c1
- IC50 [4]: > 100 µM (not active)
- IC50 (Bcl-2-related protein A1 [5]): > 100 µM (not active)
- IC50 (Bcl-2-related protein A1 [6]): > 100 µM (not active)

Compound: COc1ccc(C2C(C(=O)N3CCCCC3)CCC(=O)N2c2cc(OC)c(OC)c(OC)c2)cc1 (stereo not given)
- EC50 [9]: 47.1 µM (not active)

Compound: O=C(CCSc1ccc(Br)cc1)c1ccc(O)cc1
- EC50 [3]: 1.17 µM (active)
- AC50 [10]: 1.81 µM (active)

Compound: O=C(N/N=C/c1ccc(-c2ccc(Cl)c(C(=O)O)c2)o1)c1cc2c(ccc3ccccc32)o1
- IC50 (Aminopeptidase N): 9.45 µM (active)
- EC50 [11]: 3.13 µM (active)
- EC50 (Streptokinase A): > 150 µM (not active)
- IC50 [12]: 58.8 µM (active)
- IC50 [13]: 1.55 µM (active)
- EC50 (Streptococcus): 66.6 µM (inconclusive)
- IC50 [14]: 3.91 µM (active)
- IC50 [15]: 10.7 µM (active)

Compound: Cc1cc(C)nc(S/C=C/C(=O)c2ccccc2)n1
- EC50 [9]: 1.32 µM (active)
- AC50 [16]: 1.72 µM (active)
- AC50 [17]: 42.4 µM (active)
- AC50 [18]: 9.3 µM (active)

Compound: COc1ccc(N2CCN(C(CNC(=O)Oc3ccccc3)c3cccnc3)CC2)cc1 (stereo not given)
- EC50 [7]: < 0.1 µM (active)
- EC50 [8]: > 30 µM (not active)
- EC50 (cells): 0.087 µM (active)

Compound: CCCC(=O)N1CCN(c2ccc(NC(=O)c3cc4ccccc4o3)cc2Cl)CC1
- IC50 [19]: 4.67 µM (active)
- EC50 [20]: 7.51 µM (active)
- EC50 [21]: 7.87 µM (active)
- EC50 [22]: 7.44 µM (active)
- AC50 (CAAX prenyl protease 2): 11.5 µM (active)
- AC50 [16]: 4.1 µM (active)
- AC50 [17]: 7.37 µM (active)
- AC50 [18]: 8.96 µM (active)

Compound: CC1CCCN(c2nc3ccccc3nc2C(C#N)C(=O)OC2CCCCC2)C1 (stereo not given)
- IC50 (Ephrin type-A receptor 4): 9.81 µM (active)

Source: ChEMBL document CHEMBL1201862, “PubChem BioAssay data set” (2004)
